pIC50: −log10 of the molar value.
Tested on: 855422-203-R-J1-PDC complex spheroid viability
Experiment: Anticancer human tumor 855422-203-R-J1-PDC patient-derived bladder carcinoma cell line growth inhibition [POLQ]
Settings: for pIC50: curve of first compound; for viability, T/C: stronger effect = lower value
Summary of the method: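 Three-cell-type spheroids modelling solid tumor plus stroma served as the readout system; POL inhibitors were tested individually and in combination, concentration ranges set by clinical Cmax where known.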

[1] = second compound 0.0316 µM, first compound 0.0316 µM
[2] = second compound 0.0316 µM, first compound 0.1 µM
[3] = second compound 0.0316 µM, first compound 0.316 µM
[4] = second compound 0.0316 µM, first compound 1 µM
[5] = second compound 0.0316 µM, first compound 3.16 µM
[6] = second compound 0.0316 µM, first compound 10 µM
[7] = second compound 0.1 µM, first compound 0.0316 µM
[8] = second compound 0.1 µM, first compound 0.1 µM
[9] = second compound 0.1 µM, first compound 0.316 µM
[10] = second compound 0.1 µM, first compound 1 µM
[11] = second compound 0.1 µM, first compound 3.16 µM
[12] = second compound 0.1 µM, first compound 10 µM
[13] = second compound 0.316 µM, first compound 0.0316 µM
[14] = second compound 0.316 µM, first compound 0.1 µM
[15] = second compound 0.316 µM, first compound 0.316 µM
[16] = second compound 0.316 µM, first compound 1 µM
[17] = second compound 0.316 µM, first compound 3.16 µM
[18] = second compound 0.316 µM, first compound 10 µM
[19] = second compound 1 µM, first compound 0.0316 µM
[20] = second compound 1 µM, first compound 0.1 µM
[21] = second compound 1 µM, first compound 0.316 µM
[22] = second compound 1 µM, first compound 1 µM
[23] = second compound 1 µM, first compound 3.16 µM
[24] = second compound 1 µM, first compound 10 µM
[25] = second compound 3.16 µM, first compound 0.0316 µM
[26] = second compound 3.16 µM, first compound 0.1 µM
[27] = second compound 3.16 µM, first compound 0.316 µM
[28] = second compound 3.16 µM, first compound 1 µM
[29] = second compound 3.16 µM, first compound 3.16 µM
[30] = second compound 3.16 µM, first compound 10 µM
[31] = second compound 10 µM, first compound 0.0316 µM
[32] = second compound 10 µM, first compound 0.1 µM
[33] = second compound 10 µM, first compound 0.316 µM
[34] = second compound 10 µM, first compound 1 µM
[35] = second compound 10 µM, first compound 3.16 µM
[36] = second compound 10 µM, first compound 10 µM
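Further: spheroids exposed to compounds for seven days before readout.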

## CC(C)n1c(=O)n(C)c2cnc3cc(F)c(-c4ccc(OCCCN5CCCCC5)nc4)cc3c21 + Cc1cccc(N(C)C(=O)C2C(O)CCN2c2nc(C)cc(C(F)(F)F)c2C#N)c1
Second compound 0.0316 µM
  pIC50: < 5.00
Second compound 0.1 µM
  pIC50: < 5.00
Second compound 0.316 µM
  pIC50: < 5.00
Second compound 1 µM
  pIC50: < 5.00
Second compound 3.16 µM
  pIC50: < 5.00
Second compound 10 µM
  pIC50: 5.17
[1]
  viability, T/C: 110%
[2]
  viability, T/C: 113%
[3]
  viability, T/C: 97.1%
[4]
  viability, T/C: 84.5%
[5]
  viability, T/C: 87.9%
[6]
  viability, T/C: 57.6%
[7]
  viability, T/C: 96.1%
[8]
  viability, T/C: 104%
[9]
  viability, T/C: 95.4%
[10]
  viability, T/C: 85.8%
[11]
  viability, T/C: 91.8%
[12]
  viability, T/C: 56.3%
[13]
  viability, T/C: 111%
[14]
  viability, T/C: 104%
[15]
  viability, T/C: 99.6%
[16]
  viability, T/C: 87.4%
[17]
  viability, T/C: 85.1%
[18]
  viability, T/C: 60%
[19]
  viability, T/C: 99.2%
[20]
  viability, T/C: 92.6%
[21]
  viability, T/C: 109%
[22]
  viability, T/C: 94.1%
[23]
  viability, T/C: 86.4%
[24]
  viability, T/C: 56.2%
[25]
  viability, T/C: 109%
[26]
  viability, T/C: 101%
[27]
  viability, T/C: 112%
[28]
  viability, T/C: 97.5%
[29]
  viability, T/C: 89.3%
[30]
  viability, T/C: 56%
[31]
  viability, T/C: 95.9%
[32]
  viability, T/C: 97.8%
[33]
  viability, T/C: 99.5%
[34]
  viability, T/C: 94.2%
[35]
  viability, T/C: 81.4%
[36]
  viability, T/C: 33.9%

## CC1COCCN1c1cc(C2(O)CC3CCC(C2)O3)c2cnn(-c3ccn[nH]3)c2n1 (stereo unspecified) + COC1C(OC(N)=O)C(O)C(Oc2ccc3c(O)c(NC(=O)c4ccc(O)c(CC=C(C)C)c4)c(=O)oc3c2C)OC1(C)C
Second compound 0.0316 µM
  pIC50: 6.95
Second compound 0.1 µM
  pIC50: 7.07
Second compound 0.316 µM
  pIC50: 6.97
Second compound 1 µM
  pIC50: 6.97
Second compound 3.16 µM
  pIC50: 7.01
Second compound 10 µM
  pIC50: 7.06
[1]
  viability, T/C: 94.3%
[2]
  viability, T/C: 54.2%
[3]
  viability, T/C: 14.5%
[4]
  viability, T/C: 8.78%
[5]
  viability, T/C: 6.63%
[6]
  viability, T/C: 3.87%
[7]
  viability, T/C: 84.8%
[8]
  viability, T/C: 44.1%
[9]
  viability, T/C: 13.4%
[10]
  viability, T/C: 9.17%
[11]
  viability, T/C: 6.55%
[12]
  viability, T/C: 4.3%
[13]
  viability, T/C: 99.6%
[14]
  viability, T/C: 52%
[15]
  viability, T/C: 18.9%
[16]
  viability, T/C: 10.2%
[17]
  viability, T/C: 8.4%
[18]
  viability, T/C: 3.49%
[19]
  viability, T/C: 109%
[20]
  viability, T/C: 52.2%
[21]
  viability, T/C: 12.7%
[22]
  viability, T/C: 8.94%
[23]
  viability, T/C: 7.59%
[24]
  viability, T/C: 4.06%
[25]
  viability, T/C: 112%
[26]
  viability, T/C: 48.2%
[27]
  viability, T/C: 14.7%
[28]
  viability, T/C: 8.35%
[29]
  viability, T/C: 7.58%
[30]
  viability, T/C: 3.81%
[31]
  viability, T/C: 112%
[32]
  viability, T/C: 42%
[33]
  viability, T/C: 15.8%
[34]
  viability, T/C: 8.17%
[35]
  viability, T/C: 7.6%
[36]
  viability, T/C: 4.01%

## COc1cccc(OCCCN)c1-c1cc(Nc2cnc(C#N)cn2)n[nH]1 + Cc1cccc(N(C)C(=O)C2C(O)CCN2c2nc(C)cc(C(F)(F)F)c2C#N)c1
Second compound 0.0316 µM
  pIC50: 7.58
Second compound 0.1 µM
  pIC50: 7.62
Second compound 0.316 µM
  pIC50: 7.59
Second compound 1 µM
  pIC50: 7.61
Second compound 3.16 µM
  pIC50: 7.63
Second compound 10 µM
  pIC50: 7.66
Second compound 0.0316 µM, first compound 0.00316 µM
  viability, T/C: 122%
Second compound 0.0316 µM, first compound 0.01 µM
  viability, T/C: 162%
[1]
  viability, T/C: 32.3%
[2]
  viability, T/C: 11.9%
[3]
  viability, T/C: 8.13%
[4]
  viability, T/C: 5.03%
Second compound 0.1 µM, first compound 0.00316 µM
  viability, T/C: 98.7%
Second compound 0.1 µM, first compound 0.01 µM
  viability, T/C: 149%
[7]
  viability, T/C: 26.4%
[8]
  viability, T/C: 8.17%
[9]
  viability, T/C: 7.52%
[10]
  viability, T/C: 6.18%
Second compound 0.316 µM, first compound 0.00316 µM
  viability, T/C: 99.1%
Second compound 0.316 µM, first compound 0.01 µM
  viability, T/C: 144%
[13]
  viability, T/C: 34.1%
[14]
  viability, T/C: 13.6%
[15]
  viability, T/C: 7.31%
[16]
  viability, T/C: 6.21%
Second compound 1 µM, first compound 0.00316 µM
  viability, T/C: 97.4%
Second compound 1 µM, first compound 0.01 µM
  viability, T/C: 133%
[19]
  viability, T/C: 32.1%
[20]
  viability, T/C: 9.07%
[21]
  viability, T/C: 8.72%
[22]
  viability, T/C: 8.98%
Second compound 3.16 µM, first compound 0.00316 µM
  viability, T/C: 87.8%
Second compound 3.16 µM, first compound 0.01 µM
  viability, T/C: 183%
[25]
  viability, T/C: 21.4%
[26]
  viability, T/C: 14.6%
[27]
  viability, T/C: 7.43%
[28]
  viability, T/C: 5.57%
Second compound 10 µM, first compound 0.00316 µM
  viability, T/C: 137%
Second compound 10 µM, first compound 0.01 µM
  viability, T/C: 94.1%
[31]
  viability, T/C: 28.3%
[32]
  viability, T/C: 11.2%
[33]
  viability, T/C: 9.5%
[34]
  viability, T/C: 7.47%

Source: PubChem BioAssay AID1963838 (Molecular Pharmacology Branch, DTP, NCI, 2024)
